Source: US20230069749A1, “USE OF POZIOTINIB FOR THE TREATMENT OF CANCERS WITH NRG1 FUSIONS” (Board of Regents, The University of Texas System, priority 2020, published 2023)

Test system: NRG1-DOC4 fusion breast cancer cell line, MDA175-VII
Test: Cell viability of MDA175-VII cells by Cell Titer Glo assay
Format: cell-based
Settings: 72 hours; for IC50 values: HER2 targeting antibody alone
Protocol: The cell viability of NRG1-DOC4 fusion breast cancer cell line, MDA175-VII, was tested with treatment of poziotinib with and without antibodies and antibody drug conjugates (ADCs) targeting HER2 and HER2/HER3 dimerization. Cell viability was determined by the Cell Titer Glo assay.

| IC50 (poziotinib alone) | Molecule | IC50 values |
| --- | --- | --- |
| 287 pM | C=CC(=O)N1CCC(Oc2cc3c(Nc4ccc(Cl)c(Cl)c4F)ncnc3cc2OC)CC1 [poziotinib, 1-[4-[4-(3,4-dichloro-2-fluoroanilino)-7-methoxyquinazolin-6-yl]oxypiperidin-1-yl]prop-2-en-1-one] | – |
| – | T-DM1 | 0.6345 µg/mL |
| – | pertuzumab: recombinant, humanized monoclonal antibody that inhibits dimerization of HER2 | 0.0537 µg/mL |
